Reference: PMC10175918 (Communications Biology, 2023)
Like-named read-outs stand apart in the source and are kept apart here.

What was measured:
Assay in all cases: TGFα-shedding assay-based GPCR screening with chimeric Gα subunit proteins
Assay type in all cases: cell-based
[1] = target: T1, 348 GPCRs (Homo sapiens, UniProt P21731); conditions: 10µM, Favipiravir 100μM
T1 construct: expressed in transfected cells; host or cells: HEK293A
T1 sequence (P21731 1-343): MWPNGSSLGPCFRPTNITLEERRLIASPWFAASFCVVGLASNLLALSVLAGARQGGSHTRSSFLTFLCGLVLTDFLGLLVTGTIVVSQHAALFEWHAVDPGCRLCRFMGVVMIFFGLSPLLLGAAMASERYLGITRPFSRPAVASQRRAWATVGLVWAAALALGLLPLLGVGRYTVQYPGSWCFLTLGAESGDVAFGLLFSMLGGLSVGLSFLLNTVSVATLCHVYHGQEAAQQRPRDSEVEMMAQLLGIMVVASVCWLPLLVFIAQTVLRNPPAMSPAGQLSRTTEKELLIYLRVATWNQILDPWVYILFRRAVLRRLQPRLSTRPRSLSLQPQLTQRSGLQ

[2] = target: 348 GPCRs (Homo sapiens, UniProt P51681); conditions: 10µM, Favipiravir 100μM
[3] = target: T2, 348 GPCRs (Homo sapiens, UniProt P51810); conditions: 10µM, Favipiravir 100μM
T2 construct: expressed in transfected cells; host or cells: HEK293A

[4] = target: T3, 348 GPCRs (Homo sapiens, UniProt Q02643); conditions: 10µM, Favipiravir 100μM
T3 construct: expressed in transfected cells; host or cells: HEK293A
T3 sequence (Q02643 23-423): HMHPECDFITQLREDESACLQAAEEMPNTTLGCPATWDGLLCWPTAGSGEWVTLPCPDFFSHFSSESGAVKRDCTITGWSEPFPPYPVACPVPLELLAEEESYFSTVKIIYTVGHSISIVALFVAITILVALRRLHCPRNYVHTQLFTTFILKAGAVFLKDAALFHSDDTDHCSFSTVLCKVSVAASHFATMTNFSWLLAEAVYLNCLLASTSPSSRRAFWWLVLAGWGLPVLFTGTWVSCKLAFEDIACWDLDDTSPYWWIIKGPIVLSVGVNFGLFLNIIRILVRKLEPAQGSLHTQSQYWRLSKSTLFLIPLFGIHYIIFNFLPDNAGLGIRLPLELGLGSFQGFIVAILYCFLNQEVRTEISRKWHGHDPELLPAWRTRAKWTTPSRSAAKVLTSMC

[5] = target: T4, 348 GPCRs (Homo sapiens, UniProt Q49SQ1); conditions: 10µM, Favipiravir 100μM
T4 construct: expressed in transfected cells; host or cells: HEK293A
T4 sequence (Q49SQ1 1-333): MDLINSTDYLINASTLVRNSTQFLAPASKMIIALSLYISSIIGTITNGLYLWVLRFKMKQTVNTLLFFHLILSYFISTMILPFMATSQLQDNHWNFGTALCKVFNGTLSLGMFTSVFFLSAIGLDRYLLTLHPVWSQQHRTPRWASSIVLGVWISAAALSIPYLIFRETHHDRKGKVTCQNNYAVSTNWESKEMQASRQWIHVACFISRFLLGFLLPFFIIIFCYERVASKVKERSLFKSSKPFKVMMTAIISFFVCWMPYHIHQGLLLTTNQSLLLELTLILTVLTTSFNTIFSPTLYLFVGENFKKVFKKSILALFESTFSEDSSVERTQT

[6] = target: T5, 348 GPCRs (Homo sapiens, UniProt Q96G91)
T5 construct: expressed in transfected cells; host or cells: HEK293A
T5 sequence (Q96G91 1-374): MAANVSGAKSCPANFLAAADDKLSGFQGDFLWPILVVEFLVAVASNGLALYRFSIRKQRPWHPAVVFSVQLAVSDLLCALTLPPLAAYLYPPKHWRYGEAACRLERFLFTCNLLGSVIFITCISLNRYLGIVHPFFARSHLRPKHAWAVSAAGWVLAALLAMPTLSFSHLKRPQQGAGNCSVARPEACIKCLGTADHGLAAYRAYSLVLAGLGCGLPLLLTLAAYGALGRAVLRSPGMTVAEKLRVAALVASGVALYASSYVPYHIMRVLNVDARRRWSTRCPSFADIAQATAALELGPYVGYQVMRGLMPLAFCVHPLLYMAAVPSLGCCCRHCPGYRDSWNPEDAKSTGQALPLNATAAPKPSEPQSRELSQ

[7] = target: T6, 348 GPCRs (Homo sapiens, UniProt Q99788); conditions: GPCR CMKLR1 (chemerin chemokine-like receptor 1)
T6 construct: expressed in transfected cells; host or cells: HEK293A
T6 sequence (Q99788 1-373): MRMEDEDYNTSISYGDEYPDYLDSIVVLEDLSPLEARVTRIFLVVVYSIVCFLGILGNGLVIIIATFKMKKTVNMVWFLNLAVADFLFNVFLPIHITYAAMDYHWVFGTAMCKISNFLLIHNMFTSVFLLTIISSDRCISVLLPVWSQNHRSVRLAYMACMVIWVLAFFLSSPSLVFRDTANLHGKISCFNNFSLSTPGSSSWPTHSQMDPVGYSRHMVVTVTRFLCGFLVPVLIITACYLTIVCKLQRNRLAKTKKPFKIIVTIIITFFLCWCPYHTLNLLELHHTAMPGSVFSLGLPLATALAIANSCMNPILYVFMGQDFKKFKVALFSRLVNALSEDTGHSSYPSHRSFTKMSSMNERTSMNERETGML

[8] = target: T7, 348 GPCRs (Homo sapiens, UniProt Q9HB89); conditions: 10µM, Favipiravir 100μM
T7 construct: expressed in transfected cells; host or cells: HEK293A
T7 sequence (Q9HB89 1-426): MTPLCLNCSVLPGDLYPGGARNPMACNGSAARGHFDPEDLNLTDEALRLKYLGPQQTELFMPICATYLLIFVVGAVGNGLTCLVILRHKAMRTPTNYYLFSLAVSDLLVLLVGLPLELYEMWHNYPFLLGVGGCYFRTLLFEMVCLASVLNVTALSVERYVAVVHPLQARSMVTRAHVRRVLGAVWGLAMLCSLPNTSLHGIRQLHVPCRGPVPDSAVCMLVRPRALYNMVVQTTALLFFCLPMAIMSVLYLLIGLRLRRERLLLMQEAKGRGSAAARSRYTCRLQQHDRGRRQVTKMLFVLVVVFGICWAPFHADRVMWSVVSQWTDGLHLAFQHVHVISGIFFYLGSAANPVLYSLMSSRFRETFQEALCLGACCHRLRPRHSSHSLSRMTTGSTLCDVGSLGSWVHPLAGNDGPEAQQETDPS

[9] = TBXA2R (thromboxane A2 receptor), read-out: % GPCR activation compared to TPA
[10] = CCR5, CCR5 (C-C motif chemokine receptor 5), read-out: % GPCR activation compared to TPA
[11] = GPR143 (G Protein-Coupled Receptor 143), read-out: % GPCR activation compared to TPA
[12] = GHRHR (growth hormone releasing hormone receptor), read-out: % GPCR activation compared to TPA
[13] = GPR33 (G protein-coupled receptor 33), read-out: % GPCR activation compared to TPA
[14] = GPCR P2Y11 (purinergic receptor P2Y, G-protein coupled, 11), read-out: % GPCR activation compared to TPA
[15] = NMUR1 (neuromedin U receptor 1), read-out: % GPCR activation compared to TPA
[16] = read-out: % GPCR activation compared to TPA, TBXA2R (thromboxane A2 receptor)
[17] = CCR5, read-out: % GPCR activation compared to TPA, CCR5 (C-C motif chemokine receptor 5)
[18] = read-out: % GPCR activation compared to TPA, GPR143 (G Protein-Coupled Receptor 143)
[19] = read-out: % GPCR activation compared to TPA, GHRHR (growth hormone releasing hormone receptor)
[20] = read-out: % GPCR activation compared to TPA, GPR33 (G protein-coupled receptor 33)
[21] = read-out: % GPCR activation compared to TPA, GPCR P2Y11 (purinergic receptor P2Y, G-protein coupled, 11)
[22] = read-out: % GPCR activation compared to TPA, NMUR1 (neuromedin U receptor 1)

Chain of 348 GPCRs (Homo sapiens, UniProt P51681) (P51681 whole entry): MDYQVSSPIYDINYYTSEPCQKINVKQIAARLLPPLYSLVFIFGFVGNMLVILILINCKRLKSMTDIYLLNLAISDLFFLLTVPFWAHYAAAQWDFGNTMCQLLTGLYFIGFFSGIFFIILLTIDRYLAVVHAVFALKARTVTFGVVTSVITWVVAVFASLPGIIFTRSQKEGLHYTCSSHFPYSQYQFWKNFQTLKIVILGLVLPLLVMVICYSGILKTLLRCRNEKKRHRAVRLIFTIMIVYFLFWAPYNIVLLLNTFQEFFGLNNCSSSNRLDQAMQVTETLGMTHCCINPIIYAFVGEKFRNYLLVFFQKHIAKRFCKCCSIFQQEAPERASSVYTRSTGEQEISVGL
T2 sequence (P51810 whole entry): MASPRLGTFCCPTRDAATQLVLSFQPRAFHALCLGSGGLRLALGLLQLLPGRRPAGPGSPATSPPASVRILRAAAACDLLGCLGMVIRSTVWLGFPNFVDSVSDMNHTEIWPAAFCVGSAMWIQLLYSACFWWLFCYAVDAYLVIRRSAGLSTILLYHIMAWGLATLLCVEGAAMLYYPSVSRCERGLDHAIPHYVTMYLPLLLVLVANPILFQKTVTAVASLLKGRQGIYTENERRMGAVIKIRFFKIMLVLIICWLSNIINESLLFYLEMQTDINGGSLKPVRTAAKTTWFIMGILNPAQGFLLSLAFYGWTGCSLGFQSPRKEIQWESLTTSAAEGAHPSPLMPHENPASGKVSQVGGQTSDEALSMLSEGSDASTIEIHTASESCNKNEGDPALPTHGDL

activation at 10 µM [1, 9] | activation at 10 µM [2, 10] | activation at 100 µM [3, 11] | activation at 100 µM [4, 12] | activation at 10 µM [5, 13] | activation at 10 µM [6, 14] | activation at 10 µM [8, 15] | activation at 100 µM ([6]; GPCR P2Y11 (purinergic receptor P2Y, G-protein coupled, 11), 100μM, read-out: % GPCR activation compared to TPA) | % GPCR activation compared to TPA ([7]; 100μM) | Compound | % GPCR activation compared to TPA ([7]; 10µM) | activation at 10 µM [1, 16] | activation at 10 µM [2, 17] | activation at 100 µM [3, 18] | activation at 100 µM [4, 19] | activation at 10 µM [5, 20] | activation at 10 µM [6, 21] | activation at 10 µM [8, 22]
-0.528% | -0.436% | -1.65% | 1.38% | 3.02% | -16.3% | -0.746% |  |  | N#C[C@@]1(c2ccc3c(N)ncnn23)O[C@H](CO)[C@@H](O)[C@H]1O [GS441524] | -4.934% |  |  |  |  |  |  | 
-0.974% | 1.19% | -1.86% | 6.96% | -0.127% |  | 0.18% | -11.1% | 2.983% | NC(=O)c1nc(F)cnc1O [favipiravir, 6-fluoro-3-hydroxy-2-pyrazinecarboxamide] |  |  |  |  |  |  |  | 
-1.16% | -2.34% | -2.51% | -0.966% | -3.96% | -21.8% | -0.0262% |  |  | CC(C)C(=O)OC[C@H]1O[C@@H](n2ccc(NO)nc2=O)[C@H](O)[C@@H]1O [molnupiravir] | -0.3127% |  |  |  |  |  |  | 
 |  |  |  |  |  |  |  |  | CCC(CC)COC(=O)[C@H](C)N[P@](=O)(OC[C@H]1O[C@@](C#N)(c2ccc3c(N)ncnn23)[C@H](O)[C@@H]1O)Oc1ccccc1 [remdesivir] | -1.376% | -0.881% | 2.38% | -0.638% | 5.92% | 2.55% | -12.5% | 0.248%
 |  |  |  |  |  |  |  |  | CC(C)OC(=O)[C@H](C)N[P@](=O)(OC[C@H]1O[C@@H](n2ccc(=O)[nH]c2=O)[C@](C)(F)[C@@H]1O)Oc1ccccc1 [sofosbuvir] | -0.9389% | 0.249% | -0.363% | -1.1% | -2.19% | -2.13% | -20.5% | -2.52%
